One data set concerns RAW 264.7 cells. In words: MTS cytotoxicity assay in RAW 264.7 cells. To be noted: 800 μM peptide. Format: cell-based. An excerpt: (§1) The 20 peptides with the top scores were selected and entrusted to Nanjing GenScript Biotechnology Co., Ltd., with synthetic sample purity > 95%. The process was as follows: Select the appropriate resin, pretreat it with solvent, remove the resin protective group, and expose the active site. The first protective amino acid is activated and coupled to the resin, and the amino protecting group of the amino acid is removed after washing. Repeat the “Activation–Conjugation–Deprotection” step and gradually add amino acids to lengthen the peptide chain. The peptide is cleaved from the resin with reagents such as TFA while the side-chain guard group is removed. Peptides are precipitated, washed, purified by HPLC, and identified by mass spectrometry. RAW 264.7 cells were purchased from Peking Union Medical College. The cytotoxicity of 20 candidate peptides towards RAW 264.7 cells is evaluated in an MTS assay (Promega, Madison, WI, USA), adapted from reference with modifications. RAW 264.7 cells are maintained in Dulbecco’s Modified Eagle Medium (DMEM, C11995500BT, Gibco, Grand Island, NY, USA) supplemented with 10% fetal bovine serum (F8687, Merck, Darmstadt, Germany) and 1% penicillin-streptomycin (C0222, Beyotime, Shanghai, China) at 37 °C under 5% CO2. […] NO production is measured using a NO detection kit (G2930, Promega) following the manufacturer’s protocol.

Data set [1] deals with LPS-induced RAW 264.7 cells. The data set is described as follows: Mouse cytokine array of LPS-induced RAW 264.7 cell supernatants. Format: cell-based. The following applies: T14 200 μM 6 h pretreatment, LPS 24 h; vs LPS group. How it is done: The expression levels of 40 cytokines and chemokines in RAW 264.7 cell culture supernatants were analyzed using the Proteome Profiler™ Mouse Cytokine Array Panel A (ARY006, R&D Systems, Minneapolis, MN, USA) following the manufacturer’s protocol. Supernatants from treated groups were collected, and 300 μL per sample was used for each array. All reagents were equilibrated to room temperature (26 ± 0.5 °C) prior to use. The array membrane was blocked with blocking buffer for 2 h at room temperature. During blocking, the detection antibody cocktail was mixed with the cell supernatant and incubated at room temperature for 1 h. The mixture was then transferred to the blocked membrane and incubated overnight at 4 °C. Post-incubation, the membrane was washed three times with wash buffer (≥10 min per wash). Horseradish peroxidase-conjugated streptavidin was added, and the membrane was incubated for 2 h at room temperature. After thorough washing, a chemiluminescent substrate was applied, and signals were captured using a chemiluminescence imaging system. The array images were analyzed using ImageJ software to quantify the integrated optical density.

Data set [2] concerns NF-κB p65 in CAP-induced HaCaT cells. The data set is described as follows: Western blot of NF-κB p65 in CAP-induced HaCaT cells. The following applies: varying concentrations of T14 6 h pretreatment, CAP 24 h, total cellular protein. It is filed as cell-based. How it is done:
Adapted from a previous study with modifications, HaCaT cells were seeded into 6-well plates at a density of 2.0 × 10^5 CFU/mL and cultured for 8–12 h. Cells were pretreated with varying concentrations of T14 for 6 h, followed by co-stimulation with CAP for 24 h. After washing with Dulbecco’s phosphate-buffered saline, the cells were lysed on ice for 1 h using RIPA Lysis Buffer (R0010, Solarbio). Lysates were centrifuged at 12,000× g for 30 min at 4 °C, and the supernatants were collected. Protein concentrations were quantified using a BCA assay and normalized. Loading buffer (P1016, Solarbio) was added at a 1:3 ratio, and the samples were denatured at 95 °C for 5 min using a heat block before being stored at −20 °C.
Proteins (10 μL/lane) were resolved via sodium dodecyl sulfate-polyacrylamide gel electrophoresis and transferred onto polyvinylidene fluoride membranes. Membranes were blocked with 5% skim milk in Tris-buffered saline containing 0.1% Tween-20 for 2 h at room temperature. Primary antibodies against NF-κB p65 (8242T, Cell Signaling Technology, Danvers, MA, USA) and GAPDH (CL594-6004, Abclonal, Wuhan, China) were diluted according to the manufacturer’s guidelines and incubated overnight at 4 °C. […] Band intensities were quantified using ImageJ software.

Data set [3] deals with LPS-induced RAW 264.7 cells. In words: NO production in LPS-induced RAW 264.7 cells. The following applies: 200 μM peptide, 2 h pretreatment, then LPS (1 μg/mL) 24 h; vs LPS-treated group. It is filed as cell-based.
Source text: as §1

In data set [4] the test system is TRPV1-mediated Ca2+ influx in CAP-induced HaCaT cells. The data set is described as follows: Capsaicin-induced Ca2+ influx in HaCaT cells (Fluo-4AM fluorescence). The following applies: 200 μM peptide, 24 h pretreatment, CAP-stimulated HaCaT cells. It is filed as cell-based. On the procedure: HaCaT cells were purchased from the Kunming Cell Bank, Chinese Academy of Sciences. Adapted from a previous study with modifications, HaCaT cells were cultured in DMEM supplemented with 10% fetal bovine serum and 1% penicillin-streptomycin at 37 °C under 5% CO2. Cells in the logarithmic growth phase were harvested and adjusted to a density of 1 × 10^5 CFU/mL. Cell suspensions (100 μL/well) were seeded into 96-well plates and incubated for 8–12 h. After removing the supernatant, the cells were treated with T10, T14, or T18 peptide solutions (200 μM) for 2, 6, 12, or 24 h, followed by stimulation with 100 μL CAP (IC0060, Solarbio) per well. Untreated cells served as blank controls. Intracellular Ca^2+ levels were quantified using a calcium ion assay kit (S1061S; Beyotime) according to the manufacturer’s protocol. Fluorescence images were captured using an inverted fluorescence microscope and analyzed using ImageJ software (NIH, Bethesda, MD, USA) to calculate the average fluorescence intensity.

Data set [5] relates to ET-1 in LPS-induced HUVECs. The data set is described as follows: ET-1 ELISA in LPS-induced HUVECs. It is filed as cell-based, human. To be noted: LPS 10 μg/mL 24 h; for ET-1 inhibition rate: (LPS − peptide)/(LPS − control). How it is done:
(§2) HUVEC cell were purchased from Peking Union Medical College. HUVECS were cultured according to protocols provided by the Peking Union Medical College Cell Bank. Cells were maintained in DMEM supplemented with 10% fetal bovine serum, 1% penicillin-streptomycin, 1% GlutaMAX™ (25030149, Gibco), 1% non-essential amino acids (N1250, Solarbio), and 2% sodium pyruvate (11360070, Gibco) at 37 °C under 5% CO2. Cells in the logarithmic growth phase were seeded into 24-well plates at 2 × 10^5 CFU/mL and incubated overnight. After supernatant removal, the cells were pretreated with varying concentrations of T14 peptide (50, 100, 200, 400 μM) for 6 h, followed by co-stimulation with LPS (10 μg/mL) for 24 h. Cell culture supernatants were collected, and the expression levels of ET-1 and ICAM-1 were quantified using ELISA kits (E-EL-H0064 for ET-1, E-EL-H6114 for ICAM-1; Procell, Wuhan, China) according to the manufacturer’s instructions. The inhibition rate was calculated using the following formula:Inhibition rate (%) = (LPS − peptide)/(LPS − control) × 100%
For orientation: An ELISA detects its analyte on a solid surface through an enzyme-linked reagent.

Data set [6] concerns ICAM-1 in LPS-induced HUVECs. The data set is described as follows: ICAM-1 ELISA in LPS-induced HUVECs. Format: cell-based, human. To be noted: LPS 10 μg/mL 24 h; for ICAM-1 inhibition rate: (LPS − peptide)/(LPS − control); for ICAM-1 level: control 0.43, LPS 0.57 pg/mL. How it is done:
as §2

Where “and” joins values, the source holds several entries; their conditions need not be identical. Identical values can stand only once.

With “IFDL [T5, hit peptide from T. fasciatus skin hydrolysate, made by solid-phase synthesis]”, the cell viability result in the data set with RAW 264.7 cells is given as “proliferative effects”.
For “LDIF [T14, hit peptide from T. fasciatus skin hydrolysate, made by solid-phase synthesis]”, in data set [1], the TIMP-1 expression result is recorded as “markedly upregulated”; the “expression of G-CSF, GM-CSF, ICAM-1, IL-3, IL-6, IL-23 and TNF-α” value is recorded as “significantly downregulated”; the “expression of M-CSF, IL-1α, IL-7, IL-13, IL-12P70, IL-16, IL-17, IL-27, CCL3, CCL4, CXCL2 and CCL5” value is given as “moderate downward trend”. The p65 expression result in data set [2] is reported as “markedly reduced p65 expression”. Also, the “Inhibitory effect on NO production” value in data set [3] is reported as “significant inhibition”. In data set [4], the “inhibition rate of Ca2+ fluorescence intensity” value was 73.1%. For the same substance, the ET-1 inhibition rate in data set [5] (100 μM T14, 6 h pretreatment) is on record as 24.47%. In addition, in data set [5] (400 μM T14, 6 h pretreatment), the ET-1 inhibition rate stood at 75.0%. Further, the ET-1 level in data set [5] (400 μM T14, 6 h pretreatment, control 2.05, LPS 2.7 pg/mL) was determined as 2.2 pg/mL. Also, in data set [6] (50 μM T14, 6 h pretreatment), the ICAM-1 inhibition rate is 20.65% and the ICAM-1 level came to 0.54 pg/mL. Also, in data set [6] (400 μM T14, 6 h pretreatment), the ICAM-1 inhibition rate was 49.0% and 48.96%; the ICAM-1 level turned out to be 0.50 pg/mL.
As for “LFIL [T9, hit peptide from T. fasciatus skin hydrolysate, made by solid-phase synthesis]”, the cell viability entry in the data set on RAW 264.7 cells is “proliferative effects”.

Source of the values: article PMC12113342, “Identification of TRPV1-Inhibitory Peptides from Takifugu fasciatus Skin Hydrolysate and Their Skin-Soothing Mechanisms” (Marine Drugs, 2025).
